The text below walks through data of patent US20070049593A1 (priority 2004, published 2007).

Usually IC50 stands for the concentration that inhibits the measured activity by half.

Each structure is given as a SMILES string. Where a name gives a salt, the structure may show the parent alone. A value given as a limit tells only on which side of the number the result lay.

T1 sequence (P26663 2420-2963): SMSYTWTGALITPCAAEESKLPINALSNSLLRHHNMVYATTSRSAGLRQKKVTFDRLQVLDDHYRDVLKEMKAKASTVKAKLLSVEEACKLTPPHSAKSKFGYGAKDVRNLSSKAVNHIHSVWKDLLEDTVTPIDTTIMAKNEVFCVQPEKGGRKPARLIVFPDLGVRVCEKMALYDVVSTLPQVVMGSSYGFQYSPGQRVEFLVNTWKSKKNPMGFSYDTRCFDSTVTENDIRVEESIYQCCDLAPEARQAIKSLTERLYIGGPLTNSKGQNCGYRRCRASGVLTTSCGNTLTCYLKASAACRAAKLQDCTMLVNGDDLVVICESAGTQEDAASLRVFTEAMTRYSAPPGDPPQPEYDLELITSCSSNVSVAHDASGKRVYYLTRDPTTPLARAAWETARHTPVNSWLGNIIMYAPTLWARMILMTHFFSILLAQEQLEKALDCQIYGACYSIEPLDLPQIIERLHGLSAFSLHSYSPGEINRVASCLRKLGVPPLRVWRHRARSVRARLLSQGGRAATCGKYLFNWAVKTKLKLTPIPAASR

The first test addresses T1, HCV polymerase (Hepatitis C virus genotype 1b, UniProt P26663).
T1 construct: a region encoding NS5B (J Virol 1991 March, 65(3), 1105-13, 544 amino acids after deletion of 47 amino acids on the C-terminal); 6xHis (C); made in house; host or cells: Escherichia coli
Kind of test: biochemical. The arrangement: species or system HCV BK strain.
Conditions: not given
The method, boiled down:
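Recombinant HCV BK-strain NS5B (C-terminal 47 aa deleted, His6-tagged, E. coli), 0.5 μg/ml, run with 5 μg/ml in vitro-transcribed RNA template (polyU/3′X), ATP/GTP/CTP 50 μM, UTP 2 μM plus [3H]UTP, pH 7.5, 25° C, 90 min. TCA-precipitated RNA counted by scintillation; IC50 from activity with vs without compound.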
As to `CCCS(=O)(=O)NC(=O)c1ccc2c(C3CCCCC3)c3n(c2c1)CCN(CC(=O)N1CCN(CC)CC1)c1ccccc1-3` [Example 1-129, N-{13-cyclohexyl-5-[2-(4-ethylpiperazin-1-yl)-2-oxoethyl]-6,7-dihydro-5H-benzo[5,6][1,4]diazepino[7,1-a]indole-10-carbonyl}propane-1-sulfonamide dihydrochloride], the IC50 is less than 100 nM.

As to `CCN1CCC(CN2CCn3c(c(C4CCCCC4)c4ccc(C(=O)O)cc43)-c3ccccc32)CC1` [Example 1-130, 13-cyclohexyl-5-(1-ethylpiperidin-4-ylmethyl)-6,7-dihydro-5H-benzo[5,6][1,4]diazepino[7,1-a]indole-10-carboxylic acid], the IC50 was less than 100 nM.

The compound `O=C(O)c1ccc2c(C3CCCCC3)c3n(c2c1)CCN(CC(=O)N1CCCCCCC1)c1ccccc1-3` [Example 1-131, 5-[2-(azocan-1-yl)-2-oxoethyl]-13-cyclohexyl-6,7-dihydro-5H-benzo[5,6][1,4]diazepino[7,1-a]indole-10-carboxylic acid] had an IC50 of less than 100 nM.

`O=C(O)c1ccc2c(C3CCCCC3)c3n(c2c1)CCN(CC(=O)N1CCCCCCCC1)c1ccccc1-3` [Example 1-132, 5-[2-(azonan-1-yl)-2-oxoethyl]-13-cyclohexyl-6,7-dihydro-5H-benzo[5,6][1,4]diazepino[7,1-a]indole-10-carboxylic acid] gave an IC50 of less than 100 nM.

As for `O=C(O)c1ccc2c(C3CCCCC3)c3n(c2c1)CCN(Cc1ccncc1)c1ccccc1-3` [Example 1-134, 13-cyclohexyl-5-(pyridin-4-ylmethyl)-6,7-dihydro-5H-benzo[5,6][1,4]diazepino[7,1-a]indole-10-carboxylic acid dihydrochloride], the IC50 was less than 100 nM.

As for `O=C(O)c1ccc2c(C3CCCCC3)c3n(c2c1)CCN(Cc1cccnc1)c1ccccc1-3` [Example 1-135, 13-cyclohexyl-5-(pyridin-3-ylmethyl)-6,7-dihydro-5H-benzo[5,6][1,4]diazepino[7,1-a]indole-10-carboxylic acid dihydrochloride], the IC50 is less than 100 nM.

`O=C(O)c1ccc2c(C3CCCCC3)c3n(c2c1)CCN(CC(=O)N1CC=CCC1)c1ccccc1-3` [Example 1-136, 13-cyclohexyl-5-[2-(3,6-dihydro-2H-pyridin-1-yl)-2-oxoethyl]-6,7-dihydro-5H-benzo[5,6][1,4]diazepino[7,1-a]indole-10-carboxylic acid] displayed an IC50 of less than 100 nM.

Turning to `CC1CCCCN1C(=O)CN1CCn2c(c(C3CCCCC3)c3ccc(C(=O)O)cc32)-c2ccccc21` (centres unmarked) [Example 1-137, 13-cyclohexyl-5-[2-(2-methylpiperidin-1-yl)-2-oxoethyl]-6,7-dihydro-5H-benzo[5,6][1,4]diazepino[7,1-a]indole-10-carboxylic acid], the IC50 was less than 100 nM.

For `O=C(O)c1ccc2c(C3CCCCC3)c3n(c2c1)CCN(CC(=O)N1CCc2ccccc2C1)c1ccccc1-3` [Example 1-138, 13-cyclohexyl-5-[2-(3,4-dihydro-1H-isoquinolin-2-yl)-2-oxoethyl]-6,7-dihydro-5H-benzo[5,6][1,4]diazepino[7,1-a]indole-10-carboxylic acid monohydrochloride], the concentration for half-maximal inhibition (IC50) is less than 100 nM.

`O=C(O)c1ccc2c(C3CCCCC3)c3n(c2c1)CCN(CC(=O)N1CCCC2CCCCC21)c1ccccc1-3` (centres unmarked) [Example 1-139, 13-cyclohexyl-5-[2-(octahydroquinolin-1-yl)-2-oxoethyl]-6,7-dihydro-5H-benzo[5,6][1,4]diazepino[7,1-a]indole-10-carboxylic acid monohydrochloride] returned an IC50 of less than 100 nM.

Consider `O=C(O)c1ccc2c(C3CCCCC3)c3n(c2c1)CCN(CC(=O)N1Cc2ccccc2C1)c1ccccc1-3` [Example 1-140, 13-cyclohexyl-5-[2-(1,3-dihydroisoindol-2-yl)-2-oxoethyl]-6,7-dihydro-5H-benzo[5,6][1,4]diazepino[7,1-a]indole-10-carboxylic acid monohydrochloride], for which the IC50 is less than 100 nM.

Regarding `O=C(O)c1ccc2c(C3CCCCC3)c3n(c2c1)CCN(CC(=O)N1CCC2CCCCC2C1)c1ccccc1-3` (centres unmarked) [Example 1-141, 13-cyclohexyl-5-[2-(octahydroisoquinolin-2-yl)-2-oxoethyl]-6,7-dihydro-5H-benzo[5,6][1,4]diazepino[7,1-a]indole-10-carboxylic acid monohydrochloride], the IC50 is less than 100 nM.

As to `O=C(O)c1ccc2c(C3CCCCC3)c3n(c2c1)CCN(CCN1CCc2ccccc2C1)c1ccccc1-3` [Example 1-142, 13-cyclohexyl-5-[2-(3,4-dihydro-1H-isoquinolin-2-yl)ethyl]-6,7-dihydro-5H-benzo[5,6][1,4]diazepino[7,1-a]indole-10-carboxylic acid dihydrochloride], the IC50 is less than 100 nM.

Compound `CC1CCCN(CCN2CCn3c(c(C4CCCCC4)c4ccc(C(=O)O)cc43)-c3ccccc32)C1` (centres unmarked) [Example 1-143, 13-cyclohexyl-5-[2-(3-methylpiperidin-1-yl)ethyl]-6,7-dihydro-5H-benzo[5,6][1,4]diazepino[7,1-a]indole-10-carboxylic acid dihydrochloride] registered a 50% inhibitory concentration (IC50) of less than 100 nM.

In turn, `O=C(O)c1ccc2c(C3CCCCC3)c3n(c2c1)CCN(CCN1CCCC2CCCCC21)c1ccccc1-3` (centres unmarked) [Example 1-144, 13-cyclohexyl-5-[2-(octahydroquinolin-1-yl)ethyl]-6,7-dihydro-5H-benzo[5,6][1,4]diazepino[7,1-a]indole-10-carboxylic acid dihydrochloride] showed an IC50 of less than 100 nM.

`O=C(O)c1ccc2c(C3CCCCC3)c3n(c2c1)CCN(CCN1Cc2ccccc2C1)c1ccccc1-3` [Example 1-145, 13-cyclohexyl-5-[2-(1,3-dihydroisoindol-2-yl)ethyl]-6,7-dihydro-5H-benzo[5,6][1,4]diazepino[7,1-a]indole-10-carboxylic acid dihydrochloride] registered an IC50 of less than 100 nM.

The compound `O=C(O)c1ccc2c(C3CCCCC3)c3n(c2c1)CCN(CCN1CCC2CCCCC2C1)c1ccccc1-3` (centres unmarked) [Example 1-146, 13-cyclohexyl-5-[2-(octahydroisoquinolin-2-yl)ethyl]-6,7-dihydro-5H-benzo[5,6][1,4]diazepino[7,1-a]indole-10-carboxylic acid dihydrochloride] came in with a half-inhibitory concentration (IC50) of less than 100 nM.

`CN(C)CCCN1CCn2c(c(C3CCCCC3)c3ccc(C(=O)O)cc32)-c2ccccc21` [Example 1-148, 13-cyclohexyl-5-(3-dimethylaminopropyl)-6,7-dihydro-5H-benzo[5,6][1,4]diazepino[7,1-a]indole-10-carboxylic acid dihydrochloride] returned an IC50 of less than 100 nM.

In turn, `O=C(O)c1ccc2c(C3CCCCC3)c3n(c2c1)CCN(CCN1CCCCC1)c1c(F)cccc1-3` [Example 1-149, 13-cyclohexyl-4-fluoro-5-[2-(piperidin-1-yl)ethyl]-6,7-dihydro-5H-benzo[5,6][1,4]diazepino[7,1-a]indole-10-carboxylic acid dihydrochloride] returned an IC50 of less than 100 nM.

The same test, now with this note: read-out: HCV polymerase inhibitory activity IC50; 25° C., 90 min; [5,6-3H]UTP incorporation into RNA.
Turning to `CCN1CCC(CN2CCn3c(c(C4CCCCC4)c4ccc(C(=O)O)cc43)-c3ccccc32)CC1` [Example 1-133, 13-cyclohexyl-5-(1-ethylpiperidin-4-ylmethyl)-6,7-dihydro-5H-benzo[5,6][1,4]diazepino[7,1-a]indole-10-carboxylic acid dihydrochloride], the IC50 is less than 100 nM.
